Assay results taken from US20230225984A1, “MONO- AND BIS-NITROSYLATED ALKYL POLYOLS FOR THERAPEUTIC USE” (priority 2020, published 2023).

Assay: Stability of non-aqueous mixtures of 1-(nitrosooxy)-propan-2-ol and 2-(nitrosooxy)-propan-1-ol in 1,2-propanediol, GC analysis
Assay type: physicochemical
Procedure: Three different concentrations of 1-(nitrosooxy)-propan-2-ol and 2-(nitrosooxy)-propan-1-ol in 1,2-propanediol were prepared and stored in both a refrigerator (5° C.) and freezer (−20° C.). Aliquots of each solution were taken periodically and analysed by GC to determine the concentration of 1-(nitrosooxy)-propan-2-ol and 2-(nitrosooxy)-propan-1-ol.
The results of the GC analysis are shown in the table below (column: Rxi-5Sil MS, 20 m×0.18 mm, […]; carrier: He; Inlet: 250° C., split ratio 100:1; constant flow: 1.0 mL/min; oven temperature profile: 40° C. (3 min), 10° C./min, 80° C. (0 min), 30° C./min, 250° C. (3 min); FID: 300° C., H2 flow 30 mL/min, air flow 400 mL/min, make-up flow (N2) 25 mL/min; internal standard: 1,1,1,3,5,5,5-heptamethyl trisiloxane): […]

[1] = Freezer (−20° C.), 10 days, Low conc. sample in 1,2-propanediol
[2] = Freezer (−20° C.), 10 days, Medium conc. sample in 1,2-propanediol
[3] = Freezer (−20° C.), 14 days, High conc. sample in 1,2-propanediol
[4] = Freezer (−20° C.), 27 days, Low conc. sample in 1,2-propanediol
[5] = Freezer (−20° C.), 27 days, Medium conc. sample in 1,2-propanediol
[6] = Freezer (−20° C.), 28 days, High conc. sample in 1,2-propanediol
[7] = Freezer (−20° C.), 56 days, High conc. sample in 1,2-propanediol
[8] = Freezer (−20° C.), 64 days, Low conc. sample in 1,2-propanediol
[9] = Freezer (−20° C.), 64 days, Medium conc. sample in 1,2-propanediol
[10] = Freezer (−20° C.), 84 days, High conc. sample in 1,2-propanediol
[11] = Freezer (−20° C.), 84 days, Low conc. sample in 1,2-propanediol
[12] = Freezer (−20° C.), 84 days, Medium conc. sample in 1,2-propanediol
[13] = Freezer (−20° C.), Start, High conc. sample in 1,2-propanediol
[14] = Freezer (−20° C.), Start, Low conc. sample in 1,2-propanediol
[15] = Freezer (−20° C.), Start, Medium conc. sample in 1,2-propanediol
[16] = Refrigerator (5° C.), 10 days, Low conc. sample in 1,2-propanediol
[17] = Refrigerator (5° C.), 10 days, Medium conc. sample in 1,2-propanediol
[18] = Refrigerator (5° C.), 14 days, High conc. sample in 1,2-propanediol
[19] = Refrigerator (5° C.), 27 days, Low conc. sample in 1,2-propanediol
[20] = Refrigerator (5° C.), 27 days, Medium conc. sample in 1,2-propanediol
[21] = Refrigerator (5° C.), 28 days, High conc. sample in 1,2-propanediol
[22] = Refrigerator (5° C.), 56 days, High conc. sample in 1,2-propanediol
[23] = Refrigerator (5° C.), 64 days, Low conc. sample in 1,2-propanediol
[24] = Refrigerator (5° C.), 64 days, Medium conc. sample in 1,2-propanediol
[25] = Refrigerator (5° C.), 84 days, High conc. sample in 1,2-propanediol
[26] = Refrigerator (5° C.), 84 days, Low conc. sample in 1,2-propanediol
[27] = Refrigerator (5° C.), 84 days, Medium conc. sample in 1,2-propanediol
[28] = Refrigerator (5° C.), Start, High conc. sample in 1,2-propanediol
[29] = Refrigerator (5° C.), Start, Low conc. sample in 1,2-propanediol
[30] = Refrigerator (5° C.), Start, Medium conc. sample in 1,2-propanediol

| SMILES | Concentration (% w/w) [1] [% w/w] | Concentration (% w/w) [2] [% w/w] | Concentration (% w/w) [3] [% w/w] | Concentration (% w/w) [4] [% w/w] | Concentration (% w/w) [5] [% w/w] | Concentration (% w/w) [6] [% w/w] | Concentration (% w/w) [7] [% w/w] | Concentration (% w/w) [8] [% w/w] | Concentration (% w/w) [9] [% w/w] | Concentration (% w/w) [10] [% w/w] | Concentration (% w/w) [11] [% w/w] | Concentration (% w/w) [12] [% w/w] | Concentration (% w/w) [13] [% w/w] | Concentration (% w/w) [14] [% w/w] | Concentration (% w/w) [15] [% w/w] | Concentration (% w/w) [16] [% w/w] | Concentration (% w/w) [17] [% w/w] | Concentration (% w/w) [18] [% w/w] | Concentration (% w/w) [19] [% w/w] | Concentration (% w/w) [20] [% w/w] | also measured |
| --- | --- | --- | --- | --- | --- | --- | --- | --- | --- | --- | --- | --- | --- | --- | --- | --- | --- | --- | --- | --- | --- |
| CC(O)CON=O (stereo not drawn) [1-Nitrite, 1-(nitrosooxy)-propan-2-ol] | 0.08 | 0.81 | 3.76 | 0.07 | 0.74 | 3.72 | 3.55 | 0.07 | 0.74 | 3.50 | 0.08 | 0.78 | 3.75 | 0.08 | 0.81 | 0.08 | 0.86 | 3.72 | 0.09 | 0.81 | Concentration (% w/w) [21]: 3.67 % w/w; Concentration (% w/w) [22]: 3.47 % w/w; Concentration (% w/w) [23]: 0.07 % w/w; Concentration (% w/w) [24]: 0.73 % w/w; Concentration (% w/w) [25]: 3.33 % w/w; Concentration (% w/w) [26]: 0.07 % w/w; Concentration (% w/w) [27]: 0.77 % w/w; Concentration (% w/w) [28]: 3.75 % w/w; Concentration (% w/w) [29]: 0.08 % w/w; Concentration (% w/w) [30]: 0.81 % w/w |
| CC(CO)ON=O (stereo not drawn) [2-Nitrite, 2-(nitrosooxy)-propan-1-ol] | 0.06 | 0.63 | 2.89 | 0.06 | 0.57 | 2.93 | 2.74 | 0.06 | 0.58 | 2.71 | 0.06 | 0.62 | 2.94 | 0.06 | 0.61 | 0.06 | 0.67 | 2.91 | 0.07 | 0.63 | Concentration (% w/w) [21]: 2.90 % w/w; Concentration (% w/w) [22]: 2.69 % w/w; Concentration (% w/w) [23]: 0.06 % w/w; Concentration (% w/w) [24]: 0.57 % w/w; Concentration (% w/w) [25]: 2.59 % w/w; Concentration (% w/w) [26]: 0.06 % w/w; Concentration (% w/w) [27]: 0.60 % w/w; Concentration (% w/w) [28]: 2.94 % w/w; Concentration (% w/w) [29]: 0.06 % w/w; Concentration (% w/w) [30]: 0.61 % w/w |
